By IC50 is commonly meant the concentration that gives 50% inhibition.

The subject of experiment [1] is MDA-MB-231 cells over-expressing PHGDH. Put plainly: Intracellular serine in MDA-MB-231 cells expressing PHGDH, medium lacking serine and glycine (LC-MS). It counts as cell-based, human. The following applies: media lacking serine and glycine. The protocol: To examine target engagement of PHGDH inhibitors in cells, MDA-MB-231 cells that lack detectable expression of PHGDH and MDA-MB-231 cells that stably express full-length human PHGDH (MDA-MB-231-PHGDH) were treated with PHGDH inhibitors in RPMI lacking serine and glycine. A MDA-MB-231 cell line was constructed which expresses PHGDH for comparison against the MDA-MB-231 empty vector line. MDA-MB-231 breast cancer cells were infected with PHGDH-expressing retrovirus.
MDA-MB-231 cells are incapable of synthesizing serine, but the addition of PHGDH permits these cells to synthesize serine. […] Concentrations of serine were determined by comparison with signals of internal standards and calibration curves. PHGDH inhibition reduces steady-state levels of intracellular serine in MDA-MB-231 cells over-expressing PHGDH. Studies were also performed in MDA-MB-468 cells, which over-express PHGDH and are PHGDH-dependent.
Cells were evenly seeded at 400,000 cells per well of a 6-well plate and allowed to attach for 24 hours. Prior to all labeling experiments, cells were pretreated with 10 μM compound or an equivalent volume of DMSO in RPMI for 1 hour. For steady-state metabolite concentrations, cells were washed with PBS prior to pretreatment and treatment in RPMI lacking serine and glycine. For labeling experiments, U-^13C-glucose, U-^13C-serine, or U-^13C-glycine replaced the corresponding unlabeled RPMI component. Cells were washed in 4° C. […] Triplicate identically seeded wells were trypsinzed and analyzed with a Multisizer Coulter Counter (Beckman Coulter) to obtain cell counts and total cell volumes for normalization.
Dried metabolites were resuspended in 100 μL water, centrifuged at 13,000×g at 4° C. for 10 minutes, and the supernatant recovered for analysis. […] Metabolites were monitored using a polarity-switching full-scan method and identified by accurate mass (±20 ppm) and retention time within 15 seconds of a previously run pure standard. […]

The target in another experiment is ALDH (Homo sapiens (Human), UniProt P00352). Put plainly: Counter-screen against ALDH. It counts as biochemical. Conditions: Table E11. Background: A counterscreen serves to expose hits that act by an unwanted route or on another target.
Chain of ALDH (P00352 whole entry): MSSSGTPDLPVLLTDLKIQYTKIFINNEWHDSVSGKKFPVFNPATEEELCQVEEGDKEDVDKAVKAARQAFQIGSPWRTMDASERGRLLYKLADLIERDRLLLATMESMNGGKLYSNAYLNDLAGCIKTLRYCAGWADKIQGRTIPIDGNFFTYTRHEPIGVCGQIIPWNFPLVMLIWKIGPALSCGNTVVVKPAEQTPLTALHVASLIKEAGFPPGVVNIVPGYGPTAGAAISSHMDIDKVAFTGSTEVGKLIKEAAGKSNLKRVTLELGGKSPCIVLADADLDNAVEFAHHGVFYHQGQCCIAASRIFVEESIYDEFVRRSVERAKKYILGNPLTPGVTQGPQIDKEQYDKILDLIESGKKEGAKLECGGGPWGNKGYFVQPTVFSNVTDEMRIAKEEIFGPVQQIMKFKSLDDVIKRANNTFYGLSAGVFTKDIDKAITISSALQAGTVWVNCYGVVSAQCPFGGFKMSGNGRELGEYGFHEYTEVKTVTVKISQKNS
The target of a further experiment is HSD17B4 (Homo sapiens (Human), UniProt P51659). The experiment can be described thus: Counter-screen against HSD17B4. It counts as biochemical. Conditions: Table E11.
Chain of HSD17B4 (P51659 whole entry, species assumed): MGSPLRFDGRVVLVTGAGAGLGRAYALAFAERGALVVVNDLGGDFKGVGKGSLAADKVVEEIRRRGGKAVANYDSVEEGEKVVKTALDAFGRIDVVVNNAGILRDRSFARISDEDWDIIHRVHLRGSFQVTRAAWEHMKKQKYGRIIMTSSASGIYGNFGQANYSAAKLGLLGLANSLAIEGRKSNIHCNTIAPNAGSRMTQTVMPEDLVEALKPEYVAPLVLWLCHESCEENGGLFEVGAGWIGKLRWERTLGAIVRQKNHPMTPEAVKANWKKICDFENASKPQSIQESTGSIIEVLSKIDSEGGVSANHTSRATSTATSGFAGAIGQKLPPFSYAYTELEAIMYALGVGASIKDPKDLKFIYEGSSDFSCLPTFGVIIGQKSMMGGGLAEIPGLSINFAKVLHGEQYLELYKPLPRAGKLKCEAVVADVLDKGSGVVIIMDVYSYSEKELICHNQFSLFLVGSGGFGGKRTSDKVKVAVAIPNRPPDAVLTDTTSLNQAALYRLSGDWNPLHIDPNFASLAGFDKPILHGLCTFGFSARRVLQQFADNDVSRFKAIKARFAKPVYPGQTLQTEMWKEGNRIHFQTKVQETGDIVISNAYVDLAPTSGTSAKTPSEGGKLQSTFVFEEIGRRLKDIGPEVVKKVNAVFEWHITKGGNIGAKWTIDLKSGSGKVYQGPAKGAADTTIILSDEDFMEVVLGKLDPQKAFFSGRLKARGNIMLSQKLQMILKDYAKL
A further experiment deals with GAPDH (Homo sapiens (Human), UniProt P04406). The experiment can be described thus: Counter-screen against GAPDH. It counts as biochemical. The following applies: Table E11. The protocol:
GAPDH substrate buffer contained 210 mM Tris pH 7.4, 2.5 mM NaH2PO4 pH 7.4, 2 mM DL-Glyceraldehyde 3-phosphate, 1.75 mM MgCl2, 0.01 mM NAD+, 0.11 mM resazurin, 0.2 mg/mL BSA, and 0.01% Tween-20. GAPDH enzyme buffer contained 50 mM Tris pH 7.4, 100 mM NaCl, 0.02 mM TCEP, 0.01 mM EDTA, 0.1 mg/mL BSA, 0.42 mg/mL diaphorase, and 2.5 nM GAPDH. The GAPDH, GPD1, and GPD1L assays were run in 384-well plates using the same protocol and readout as the PHGDH assay. […] GPD1 enzyme buffer contained 50 mM Tris pH 7.4, 100 mM NaCl, 0.08 mM TCEP, 0.4 mg/mL BSA, 0.03 μM EDTA, and 0.8 nM GPD1. 70 μL of substrate buffer were mixed with 10 μL enzyme buffer. GPD1L substrate buffer contained 200 mM Tris pH 7.4, 0.05 mM sn-G3-P, 2 mM MgCl2, 0.04 mM NAD+, 0.11 mM resazurin, 0.1 mg/mL BSA, and 0.02% Tween-20. GPD1L enzyme buffer contained 50 mM Tris pH 7.4, 100 mM NaCl, 0.02 mM TCEP, 0.42 mg/mL diaphorase, 0.1 mg/mL BSA, 0.008 μM EDTA, and 16 nM GPD1L. 40 μL of substrate buffer were mixed with 40 μL of enzyme buffer.
The GAPDH and GPD1L assays were read using the same protocol as the PHGDH assay. The GPD1 assay was read using loss of NADH fluorescence (λex=340 nm and λem=460 nm).

A further experiment concerns panel of 168 GPCRs. Put plainly: Cross-reactivity in a panel of 168 GPCRs.
The target of experiment [2] is T1, PHGDH (Homo sapiens (Human), UniProt O43175). Put plainly: Differential scanning fluorimetry. It counts as binding. The protocol:
Destabilization has been previously observed in the specific binding of small molecules to their protein targets (see, e.g., Hamiaux, C. et al. “DAD2 is an α/β hydrolase likely to be involved in the perception of the plant branching hormone, strigolactone.” Curr Biol 22, 2032-2036 (2012)).
Differential scanning fluorimetry assays were carried out in 20 mM TEA pH 8, 100 mM NaCl, 1× SYPRO Orange (Sigma), 2 μM PHGDH in a volume of 10 μL. Unfolding was monitored using a LightCycler 480 II real-time PCR instrument (λex=465 nm and λem=580 nm) over a linear 20 to 85° C. gradient. Plots of the first derivative of fluorescence vs. temperature were generated in LightCycler software.

The subject of experiment [3] is panel of other dehydrogenases. The experiment can be described thus: Panel of other dehydrogenases. It counts as biochemical.
A further experiment relates to MDA-MB-468 cells. Put plainly: Metabolite profiling and 13C labeling in MDA-MB-468 cells (LC-MS). Conditions: washout. It counts as cell-based, human. Here is the method:
To track the effects of PHGDH inhibition on glycolysis and serine biosynthesis, MDA-MB-231 and MDA-MB-468 cells were fed universally labeled carbon-13 glucose and the intracellular ratio of labeled to unlabeled glucose was measured at the times indicated in FIG. 3E.
Cells were evenly seeded at 400,000 cells per well of a 6-well plate and allowed to attach for 24 hours. Prior to all labeling experiments, cells were pretreated with 10 μM compound or an equivalent volume of DMSO in RPMI for 1 hour. For steady-state metabolite concentrations, cells were washed with PBS prior to pretreatment and treatment in RPMI lacking serine and glycine. For labeling experiments, U-^13C-glucose, U-^13C-serine, or U-^13C-glycine replaced the corresponding unlabeled RPMI component. Cells were washed in 4° C. 0.9% (w/v) NaCl in LCMS-grade water and extracted in 1 mL/well of 80:20 (v/v) methanol:water with 0.01 ng/mL Val-d8 and Phe-d8 as internal extraction standards. The extraction solvent was dried under nitrogen gas and metabolite samples were stored at −80° C. until analysis. Triplicate identically seeded wells were trypsinzed and analyzed with a Multisizer Coulter Counter (Beckman Coulter) to obtain cell counts and total cell volumes for normalization.
Dried metabolites were resuspended in 100 μL water, centrifuged at 13,000×g at 4° C. for 10 minutes, and the supernatant recovered for analysis. Chromatographic separation was achieved by injecting 1 pi of sample on a SeQuant ZIC-pHILIC Polymeric column (2.1 3 150 mm […], EMD Millipore). Flow rate was set to 0.1 ml per minute, column compartment was set to 25° C., and autosampler sample tray was set to 4° C. Mobile Phase A consisted of 20 mM ammonium carbonate, 0.1% ammonium hydroxide. Mobile Phase B was 100% acetonitrile. The mobile phase gradient (% B) was as follows: 0 min 80%, 30 min 20%, 31 min 80%, 42 min 80%. All mobile phase was introduced into the ionization source set with the following parameters: sheath gas=40, auxiliary gas=15, sweep gas=5, spray voltage=−3.1 kV or +3.0 kV, capillary temperature=275° C., S-lens RF level=40, probe temperature=350° C. Metabolites were monitored using a polarity-switching full-scan method and identified by accurate mass (±20 ppm) and retention time within 15 seconds of a previously run pure standard. Metabolite peaks were identified and integrated with Xcalibur v.2.2 software (Thermo Fisher Scientific) and normalized to internal standard and to total cell volume, m/z ratios for stable isotopically labeled metabolites were obtained from IsoMETLIN (See, e.g., Cho, K. et al. “isoMETLIN: a database for isotope-based metabolomics.” Anal Chem 86, 9358-9361 (2014)) and corrected for natural abundance.

Experiment [4] concerns the target T1, PHGDH. The experiment can be described thus: PHGDH inhibition, coupled assay with PSAT1/PSPH and diaphorase/resazurin readout. It counts as biochemical. The following applies: Table E9; mixture with PSAT1, PSPH; diaphorase/resazurin reporter. Background: Resazurin is reduced to fluorescent resorufin, in cell work by metabolically active cells.
Experimental: Compounds of the invention were assayed for inhibition of the activity phosphoglycerate dehydrogenase (PHGDH). The compounds were assayed in a mixture comprising PHGDH, PSAT1, PSPH, NADH, and glutamate. Diaphorase and resazurin were used as a fluorescent reporter system.
In this endogenous pathway coupled assay, the production of NADH by PHGDH was measured through the diaphorasemediated reduction of resazurin (See, e.g., Chakraborty, S., Sakka, M., Kimura, T. & Sakka, K. “Characterization of a dihydrolipoyl dehydrogenase having diaphorase activity of Clostridium kluyveri.” BioscL Biotechnol. Biochem. 72, 982-988 (2008)).
PHGDH assay buffer contained 50 mM TEA pH 8.0, 10 mM MgCl2, 0.05% BSA, and 0.01% Tween-20. PHGDH enzyme buffer consisted of assay buffer with 20 nM PHGDH and 0.2 mg/mL diaphorase. PHGDH substrate buffer contained 0.3 mM NAD 1.25 mM glutamate, 0.1 mM 3-phosphoglycerate, 0.2 mM resazurin, 1 μM PSAT1, and 1 μM PSPH. qHTS was performed in 1536-well plates dispensed with a BioRAPTR FRD. Each well contained equal volumes of substrate buffer and assay buffer. Plates were read at 0 minutes and 20 minutes at room temperature with a ViewLux uHTS Microplate Imager (PerkinElmer). Follow-up assays were performed in black 384-well plates (Greiner) in 20 μL of enzyme buffer to which compounds were added in dose-response with an HP D300 digital dispenser (Hewlett-Packard), followed by addition of 20 μL of substrate buffer. Plates were incubated at room temperature (25° C.) and read at 0 and 20 minutes with a Spectramax M5 plate reader (Molecular Devices) in fluorescence intensity mode with a λex=550 nm and λem=600 nm (emission cutoff=590 nm).

T1 sequence (O43175 whole entry): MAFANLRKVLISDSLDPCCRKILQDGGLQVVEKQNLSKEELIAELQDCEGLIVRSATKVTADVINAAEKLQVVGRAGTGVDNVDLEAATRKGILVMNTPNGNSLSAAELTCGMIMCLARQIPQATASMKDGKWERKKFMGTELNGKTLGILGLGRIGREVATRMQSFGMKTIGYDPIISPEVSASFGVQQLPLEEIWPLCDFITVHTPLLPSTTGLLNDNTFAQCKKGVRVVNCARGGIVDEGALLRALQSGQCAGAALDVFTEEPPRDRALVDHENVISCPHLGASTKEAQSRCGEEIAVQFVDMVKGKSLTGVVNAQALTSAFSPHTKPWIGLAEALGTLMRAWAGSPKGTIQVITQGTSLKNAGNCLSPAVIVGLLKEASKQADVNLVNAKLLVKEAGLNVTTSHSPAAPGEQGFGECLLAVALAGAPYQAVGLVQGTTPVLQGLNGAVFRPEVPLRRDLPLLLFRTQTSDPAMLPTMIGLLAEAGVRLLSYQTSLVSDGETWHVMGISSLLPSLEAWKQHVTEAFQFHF
Chain of GAPDH (P04406 whole entry): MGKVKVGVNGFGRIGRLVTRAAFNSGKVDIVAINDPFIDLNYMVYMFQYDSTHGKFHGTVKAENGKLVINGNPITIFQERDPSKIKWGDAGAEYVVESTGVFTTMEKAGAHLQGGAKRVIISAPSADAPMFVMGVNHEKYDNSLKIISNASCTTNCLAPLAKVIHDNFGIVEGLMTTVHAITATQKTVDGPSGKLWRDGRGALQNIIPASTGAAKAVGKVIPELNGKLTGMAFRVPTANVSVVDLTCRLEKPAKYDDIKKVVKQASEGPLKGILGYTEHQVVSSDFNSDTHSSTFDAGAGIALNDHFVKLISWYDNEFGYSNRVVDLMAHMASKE

Turning to `Cc1cc(C)nc(NC(=S)N2CCN(c3ccc(C(F)(F)F)cn3)CC2)c1` [Compound 72, N-(4,6-dimethylpyridin-2-yl)-4-(5-(trifluoromethyl)pyridin-2-yl)piperazine-1-carbothioamide], in [1], the intracellular serine levels result is given as “decreased”. For the same molecule, the IC50 against ALDH is 10 to 50 µM; against HSD17B4, not below 100 µM; at GAPDH it was not below 100 µM. The “cross-reactivity, modulation of activity” value with panel of 168 GPCRs is less than 30%. The “Tm of PHGDH” value at PHGDH [2] is “decreased”. The “activity against a panel of other dehydrogenases” value in experiment [3] is “inactive”. Moreover, the “reversibility of inhibition of serine synthesis in cells” value with MDA-MB-468 cells was “reversible”.

Regarding `Cc1cc(C)nc(NC(=S)N2CCN(c3ccncc3)CC2)c1` [Compound 71, N-(4,6-dimethylpyridin-2-yl)-4-(pyridin-4-yl)piperazine-1-carbothioamide], the intracellular serine levels result in experiment [1] is “not reduced”. Moreover, the IC50 on PHGDH [4] is not below 20 µM.
